Data set [1] has as its target T1, Signal transduction protein TRAP (Staphylococcus aureus (strain Mu50 / ATCC 700699)) (UniProt Q7A2Q4).
T1 sequence (whole entry): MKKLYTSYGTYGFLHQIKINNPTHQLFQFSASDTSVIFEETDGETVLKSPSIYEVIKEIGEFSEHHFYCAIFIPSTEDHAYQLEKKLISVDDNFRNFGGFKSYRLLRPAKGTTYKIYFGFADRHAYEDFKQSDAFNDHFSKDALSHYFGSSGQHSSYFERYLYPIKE
The data set can be described thus: Inhibition of methicillin-resistant Staphylococcus aureus Mu50 TRAP assessed as potentiation of vancomycin-induced antibiofilm activity by measuring vancomycin-mediated reduction in colony forming units at 25 uM cotreated with vancomycin for 24 hrs (reference value: 30 +/- 14%). As to conditions: Staphylococcus aureus subsp. aureus Mu50.

Data set [2] addresses T1, Signal transduction protein TRAP (Staphylococcus aureus (strain Mu50 / ATCC 700699)). Kind of data set: Inhibition of methicillin-resistant Staphylococcus aureus Mu50 TRAP assessed as potentiation of vancomycin-induced antibiofilm activity by measuring vancomycin-mediated reduction in colony forming units at 25 uM pretreated for 4 hrs prior to vancomycin addition measured after 20 hrs (reference value: 30 +/- 14%). As to conditions: Staphylococcus aureus subsp. aureus Mu50.

Data set [3] deals with Staphylococcus aureus. Kind of data set: Growth inhibition of methicillin-resistant Staphylococcus aureus Mu50.
Data set [4] deals with Staphylococcus aureus. The data set can be described thus: Antibiofilm activity against methicillin-resistant Staphylococcus aureus JE2 at 100 uM. The format is functional.
Data set [5] has as its target T1, Signal transduction protein TRAP (Staphylococcus aureus (strain Mu50 / ATCC 700699)). The data set can be described thus: Inhibition of methicillin-resistant Staphylococcus aureus Mu50 TRAP assessed as reduction in vancomycin MIC at 100 uM. As to conditions: Staphylococcus aureus subsp. aureus Mu50.
In data set [6] the test system is Staphylococcus aureus. Kind of data set: Inhibition of methicillin-resistant Staphylococcus aureus JE2 TRAP assessed as reduction in vancomycin MIC at 100 uM.
Data set [7] concerns Staphylococcus aureus. The data set can be described thus: Antibiofilm activity against methicillin-resistant Staphylococcus aureus Mu50 at 100 uM. The format is functional.
Data set [8] deals with Plasma. The data set can be described thus: Metabolic stability in human plasma by UPLC-MS/MS analysis. The format is ADME, cell-free.
Data set [9] is described as follows: Drug metabolism assessed as CYP450-mediated compound degradation in human liver microsomes at 5 uM using NADPH as cofactor by UPLC-MS/MS analysis. The format is ADME. On the technique in general: Microsomes from liver hold many membrane-bound enzymes, among them those of drug oxidation.
A short description of data set [10]: Drug metabolism assessed as UGT-mediated compound degradation in human liver microsomes at 5 uM using UDPGA as cofactor by UPLC-MS/MS analysis. The format is ADME.

Activity calls are given as the source filed them. The rule behind the calls is not given here.

Broadly, the inhibition is the share of the control response that was lost under treatment. With `CN[C@H](CC(C)C)C(=O)N[C@H]1C(=O)N[C@@H](CC(N)=O)C(=O)N[C@H]2C(=O)N[C@H]3C(=O)N[C@H](C(=O)N[C@H](C(=O)O)c4cc(O)cc(O)c4-c4cc3ccc4O)[C@H](O)c3ccc(c(Cl)c3)Oc3cc2cc(c3O[C@@H]2O[C@H](CO)[C@@H](O)[C@H](O)[C@H]2O[C@H]2C[C@](C)(N)[C@H](O)[C@H](C)O2)Oc2ccc(cc2Cl)[C@H]1O`, the inhibition in data set [1] and in data set [2] was 30% each time.
Turning to `O=C(NC[C@H]1OC[C@@](O)(CN2Cc3ccccc3C2=O)[C@@H]1O)c1ccccc1Cl`, the MIC in data set [3] is > 500 µM. The inhibition in [1] was 73%; in data set [2], 92%.
On to `O=C(NC[C@]1(O)CO[C@H](CNC(=O)c2ccccc2Cl)[C@H]1O)c1ccccc1`, for which, in data set [3], the MIC is > 500 µM. The inhibition in [1] stood at 80%; in data set [2] it was 85%.
For `O=C(NC[C@]1(O)CO[C@H](CNC(=O)c2ccccc2Cl)[C@H]1O)c1ccccc1F`, in that order: > 500 µM, 56% and 38%.
As for `CC(=O)NC[C@]1(O)CO[C@H](CNC(=O)c2ccccc2Cl)[C@H]1O`, the MIC in [3] was > 500 µM. Moreover, the inhibition worked out at 82% in [1] and 70% in [2].
Consider `O=C(NC[C@]1(O)CO[C@H](CNC(=O)c2ccccc2Cl)[C@H]1O)c1cncnc1`, for which the MIC in data set [3] is > 500 µM. Also, the inhibition in data set [1] came to 35%; in data set [2], 36%.
For `O=C(NC[C@H]1OC[C@H](O)[C@@H]1O)c1ccccc1Cl` the same measures were > 500 µM, 81% and 80%.
For `COc1ccc(C(=O)NC[C@]2(O)CO[C@H](CNC(=O)c3ccccc3Cl)[C@H]2O)cc1` the same measures were > 500 µM, 43% and 34%.
For `O=C(CCc1ccccc1)NC[C@]1(O)CO[C@H](CNC(=O)c2ccccc2Cl)[C@H]1O` the same measures were > 500 µM, 18% and 35%.
As to `O=C(NC[C@H]1OC[C@@](O)(CNCc2ccccc2)[C@@H]1O)c1ccccc1Cl`, the MIC in [3] was > 500 µM. The inhibition in data set [1] amounted to 89%; in [2], 94%.
With `O=C(NC[C@]1(O)CO[C@H](CN2C(=O)c3ccccc3C2=O)[C@H]1O)c1ccnnc1`, the outcome in data set [4] and in data set [7] was inactive. Further, the inhibition entry in data set [5] and in [6] was “inactive” throughout.
Take `O=C(OC[C@H]1OC(O)[C@@](O)(COC(=O)c2cc(O)c(O)c(O)c2)[C@@H]1O)c1cc(O)c(O)c(O)c1` (some centres undefined) [HAMAMELITANNIN]: the MIC in [3] was > 500 µM. The inhibition turned out to be 31% in [1] and 35% in [2].
For `O=C(NC[C@]1(O)CO[C@H](CNC(=O)c2ccccc2Cl)[C@H]1O)c1ccoc1`, in that order: > 500 µM, 50% and 58%.
For `O=C(NC[C@H]1OC[C@@](O)(CNC(=O)C2CCCCC2)[C@@H]1O)c1ccccc1Cl`, in that order: > 500 µM, 55% and 85%.
`O=C(NC[C@]1(O)CO[C@H](CNC(=O)c2ccccc2Cl)[C@H]1O)c1ccc(Cl)cc1`: the MIC in data set [3] is > 500 µM. Besides, the inhibition in [1] amounted to 43%; in data set [2], 39%.
`O=C(NC[C@]1(O)CO[C@H](CN2C(=O)c3ccccc3C2=O)[C@H]1O)c1ccccc1Cl`: the outcome in data set [4] and in data set [7] was inactive. For the same molecule, the inhibition result in data set [5] and in [6] was “inactive” in each case. The Stability entry in data set [8] is on record as “Stable”; in data set [9], “Unstable”; in [10] it was “Stable”.
Take `[N-]=[N+]=NC[C@]1(O)CO[C@H](CNC(=O)c2ccccc2Cl)[C@H]1O`: the MIC in data set [3] is > 500 µM. In addition, the inhibition in [1] stood at 88%; in data set [2], 87%.
For `O=C(NC[C@H]1OC[C@@](O)(CNS(=O)(=O)c2ccccc2)[C@@H]1O)c1ccccc1Cl`, the MIC in data set [3] was > 500 µM. Moreover, the inhibition in [1] came out at 44%; in data set [2], 65%.
For `Cc1ccc(C(=O)NC[C@]2(O)CO[C@H](CNC(=O)c3ccccc3Cl)[C@H]2O)cc1`, in that order: > 500 µM, 58% and 48%.
In the case of `O=C(NC[C@]1(O)CO[C@H](CNC(=O)c2ccccc2Cl)[C@H]1O)Nc1ccccc1`, in data set [3], the MIC is > 500 µM. For the same molecule, the inhibition in data set [1] was 58%; in data set [2] it was 67%.

Source of the values: ChEMBL document CHEMBL4041547, “Novel Potentiators for Vancomycin in the Treatment of Biofilm-Related MRSA Infections via a Mix and Match Approach” (ACS Med Chem Lett, 2017).
